Assay results published in PMC6792352, “Limited Chemical Structural Diversity Found to Modulate Thyroid Hormone Receptor in the Tox21 Chemical Library” (Environmental Health Perspectives, 2019).
Where a name gives a salt, the structure may show the parent alone.

Assay: in vitro
Conditions: rat, gh3-tre-luc cells, AC50 (uM) modified / 1000

`COc1ccc2c(c1)c(CC(=O)O)c(C)n2C(=O)c1ccc(Cl)cc1` [Indomethacin] and `O=C(Oc1ccccc1)c1ccc2ccccc2c1O` [Phenyl 1-hydroxy-2-naphthoate] cannot be ordered by CC50 at 24 h: > 90 µM for the first, > 90 µM for the second.

Compared with `C[n+]1cc2c3c(ccc2c2ccc4cc5c(cc4c21)OCO5)OCO3` [Sanguinarine], `Fc1ccc([C@@H]2CCNC[C@H]2COc2ccc3c(c2)OCO3)cc1` [Paroxetine] is 3.7-fold higher in CC50 at 24 h: 2.9 µM for the first, 10.7 µM for the second.

`CC(C)OC(=S)S` [Proxan-sodium] and `COC(C)=O` [Methyl acetate] cannot be ordered by CC50 at 24 h: > 90 µM for the first, > 90 µM for the second.

`C=CCC=CC` [1,4-Hexadiene] and `CCCCCC(O)/C=C/C=O` (stereo not drawn) [(2E)-4-Hydroxy-2-nonenal] cannot be ordered by CC50 at 24 h: > 90 µM for the first, > 50 µM for the second.

`N#CCc1cccc(C(F)(F)F)c1` [[3-(Trifluoromethyl)phenyl]acetonitrile] and `Cc1cccc(C)c1NC(=O)CN1CCCC1=O` [Nefiracetam] cannot be ordered by CC50 at 24 h: > 90 µM for the first, > 50 µM for the second.

Going from `O=C(c1ccc(F)cc1)C1CCN(CCn2c(=S)[nH]c3ccccc3c2=O)CC1` [Altanserin hydrochloride] to `Cc1nc(-c2ccc3c(c2)CCN(CCC2CCC(NC(=O)/C=C/c4ccc(F)cc4)CC2)CC3)no1` (stereo not drawn) [SB413217A], the CC50 at 24 h falls from > 50 µM to 8.41 µM.

`Cc1cc(NS(=O)(=O)c2ccc(N)cc2)nc(C)n1` [Sulfisomidine] and `CCc1ccc(S(=O)(=O)O)cc1` [4-Ethylbenzenesulfonic acid] cannot be ordered by CC50 at 24 h: > 50 µM for the first, > 50 µM for the second.

Going from `CN(C/C=C/c1ccccc1)Cc1cccc2ccccc12` [Naftifine hydrochloride] to `Oc1cc2ccccc2c2ccccc12` [9-Phenanthrol], the CC50 at 24 h falls from 25 µM to 6.81 µM (3.7-fold).

`OP(O)c1ccccc1` [Phenylphosphinic acid] and `N=C(Nc1ccccc1)Nc1ccccc1` [1,3-Diphenylguanidine] cannot be ordered by CC50 at 24 h: > 90 µM for the first, > 50 µM for the second.

`O=C(c1ccc(O)cc1)c1ccc(O)cc1` [4,4'-Dihydoxybenzophenone] and `CC(=O)Nc1ccc2c(c1)Cc1cc(NC(C)=O)ccc1-2` [2,7-Acetylaminofluorene] cannot be ordered by CC50 at 24 h: > 90 µM for the first, > 90 µM for the second.

`Cc1cnc(NC(=O)C2=C(O)c3ccccc3S(=O)(=O)N2C)s1` [Meloxicam] and `CN1C(C(=O)Nc2ccccn2)=C(O)c2sc(Cl)cc2S1(=O)=O` [Lornoxicam] cannot be ordered by CC50 at 24 h: > 90 µM for the first, > 50 µM for the second.

`C[C@H]1C(=O)O[C@@H]2CCN3CC=C(COC(=O)[C@](C)(O)[C@]1(C)O)[C@H]23` [Monocrotaline] and `CCn1cc(C(=O)O)c(=O)c2cnc(N3CCNCC3)nc21` [Pipemidic acid] cannot be ordered by CC50 at 24 h: > 90 µM for the first, > 20 µM for the second.

`CC(C)(CCl)C(=O)Cl` [3-Chloro-2,2-dimethylpropanoyl chloride] and `ClCCl` [Dichloromethane] cannot be ordered by CC50 at 24 h: > 90 µM for the first, > 90 µM for the second.

`C=Cc1ccc(C(C)(C)C)cc1` [4-tert-Butylstyrene] and `COc1ccc(/C=C/C(=O)O)cc1` [4-Methoxy-(2E)-cinnamic acid] cannot be ordered by CC50 at 24 h: > 90 µM for the first, > 50 µM for the second.

`CC(C)[N+](C)(CCC(C(N)=O)(c1ccccc1)c1ccccc1)C(C)C` [Isopropamide] and `C#CCOC(C(=O)OCCN(C)C)(c1ccccc1)c1ccccc1` [Pargeverine hydrochloride] cannot be ordered by CC50 at 24 h: > 20 µM for the first, > 50 µM for the second.

`N#CCCCl` [3-Chloropropionitrile] and `CC(C#N)(CCC(=O)O)N=NC(C)(C#N)CCC(=O)O` (stereo not drawn) [4,4'-Diazene-1,2-diylbis(4-cyanopentanoic acid)] cannot be ordered by CC50 at 24 h: > 90 µM for the first, > 90 µM for the second.

Compared with `c1ccc2cc(Nc3ccc(Nc4ccc5ccccc5c4)cc3)ccc2c1` [N,N'-Di-2-naphthyl-p-phenylenediamine], `COC(=O)C1=C(C)NC(C)=C(C(=O)OCCCN2CCC(c3ccccc3)(c3ccccc3)CC2)C1c1cccc([N+](=O)[O-])c1` (racemic) [(+/-) -Niguldipine hydrochloride (1:x)] is lower in CC50 at 24 h: > 90 µM for the first, 12.3 µM for the second.

Going from `Clc1ccccc1CN1CCc2sccc2C1` [Ticlopidine] to `Cc1cc(-c2ccccc2)nnc1NCCN1CCOCC1` [Minaprine dihydrochloride], the CC50 at 24 h rises from 21.6 µM to > 50 µM.

`NNC(N)=O` [Semicarbazide hydrochloride] and `CCOC(N)=O` [Urethane] cannot be ordered by CC50 at 24 h: > 90 µM for the first, > 100 µM for the second.

`COC(=O)C(C)N(C(=O)c1ccco1)c1c(C)cccc1C` (stereo not drawn) [Furalaxyl] and `CC(C)N1C(=O)c2ccccc2C1=O` [N-Isopropylphthalimide] cannot be ordered by CC50 at 24 h: > 90 µM for the first, > 90 µM for the second.

`CCCCCCCCCCCCSC` [1-(Methylsulfanyl)dodecane] and `CCCCCCCC/C=C\CCCCCCCCN` [(Z)-9-Octadecenylamine] cannot be ordered by CC50 at 24 h: > 90 µM for the first, > 50 µM for the second.

`O=CN1CCOCC1` [4-Morpholinecarboxaldehyde] and `C=CN1CCCCCC1=O` [1-Ethenylazepan-2-one] cannot be ordered by CC50 at 24 h: > 90 µM for the first, > 90 µM for the second.

`COC(=O)CC(C(C)=O)C(=O)OC` (stereo not drawn) [Dimethyl acetylsuccinate] and `C=C(C)C(=O)OCCO` [2-Hydroxyethyl methacrylate] cannot be ordered by CC50 at 24 h: > 90 µM for the first, > 90 µM for the second.

Compared with `FC1(F)C(F)(F)C(F)(F)C2(F)C(F)(F)C(F)(F)C(F)(F)C(F)(F)C2(F)C1(F)F` (stereo not drawn) [Perflunafene], `CCN(CC)CCNc1ccc(CNC=O)c2sc3ccc(OC)cc3c(=O)c12` [SR271425] is lower in CC50 at 24 h: > 50 µM for the first, 11.7 µM for the second.

First: CCCCCC[C@@H](O)C/C=C\CCCCCCCC(=O)OC [Methyl ricinoleate]
Second: CCCCCCCCCCCCCCCCCC[n+]1ccn(C)c1 [1-Methyl-3-octadecylimidazolium hexafluorophosphate]
The CC50 at 24 h of the first is higher: > 90 µM for the first, 9.82 µM for the second.

`O=[N+]([O-])c1cccc(S(=O)(=O)NCCNS(=O)(=O)c2cccc([N+](=O)[O-])c2)c1` [Dinsed] and `CCCCS(=O)(=O)N[C@@H](Cc1ccc(OCCCCC2CCNCC2)cc1)C(=O)O` [Tirofiban hydrochloride monohydrate] cannot be ordered by CC50 at 24 h: > 50 µM for the first, > 50 µM for the second.

`CO/N=C(\C(=O)N[C@@H]1C(=O)N2C(C(=O)O)=C(C[N+]3(C)CCCC3)CS[C@H]12)c1csc(N)n1` [Cefepime chloride hydrochloride hydrate] and `O=C1c2ccccc2C(=O)N1CCc1noc(-c2ccc(CN3CCCCCC3)s2)n1` [PharmaGSID_48172] cannot be ordered by CC50 at 24 h: > 50 µM for the first, > 80 µM for the second.

`O=C(O)c1cccc(Cl)n1` [6-Chloro-2-picolinic acid] and `CCC(C)c1nccnc1OC` (stereo not drawn) [2-sec-Butyl-3-methoxypyrazine] cannot be ordered by CC50 at 24 h: > 90 µM for the first, > 90 µM for the second.

Same assay, conditions: rat, gh3-tre-luc cells, AC50 (uM) modified / 1000, Tox21_110001=Tox21_111052; viability, 1 nM T3 present, 24 h

For `COP(=O)(OC)OC=C(Cl)Cl` [Dichlorvos], the CC50 at 24 h was > 50 µM.

Same assay, conditions: rat, gh3-tre-luc cells, AC50 (uM) modified / 1000, Tox21_110001=Tox21_112027; viability, 1 nM T3 present, 24 h

In the case of `COc1ccc2c3c1O[C@H]1[C@@H](O)C=C[C@H]4[C@@H](C2)NCC[C@@]341` [Norcodeine], the CC50 at 24 h is reported as > 50 µM.

Same assay, conditions: rat, gh3-tre-luc cells, AC50 (uM) modified / 1000, Tox21_110001=Tox21_112058; viability, 1 nM T3 present, 24 h

For `O[C@H]1[C@H]2[C@H](O)CCCN2C[C@H]1O` [Swainsonine], the CC50 at 24 h was > 50 µM.

Same assay, conditions: rat, gh3-tre-luc cells, AC50 (uM) modified / 1000, Tox21_110001=Tox21_112370; viability, 1 nM T3 present, 24 h

With `OC[C@@H](O)[C@H]1O[C@@H]2O[C@@H](C(Cl)(Cl)Cl)O[C@@H]2[C@H]1O` [beta-Chloralose] the CC50 at 24 h was > 50 µM.

Same assay, conditions: rat, gh3-tre-luc cells, AC50 (uM) modified / 1000, Tox21_110001=Tox21_113424; viability, 1 nM T3 present, 24 h

With `C[C@]12CCC(=O)C[C@@H]1CC[C@@H]1[C@@H]2CC[C@@]2(C)[C@H]1CC[C@]2(C)O` [Mestanolone] the CC50 at 24 h was > 50 µM.

Same assay, conditions: rat, gh3-tre-luc cells, AC50 (uM) modified / 1000, Tox21_110001=Tox21_201109; viability, 1 nM T3 present, 24 h

For `ClCC(Cl)(Cl)Cl` [1,1,1,2-Tetrachloroethane], the CC50 at 24 h was > 100 µM.

Same assay, conditions: rat, gh3-tre-luc cells, AC50 (uM) modified / 1000, Tox21_110001=Tox21_201617; viability, 1 nM T3 present, 24 h

In the case of `COP(=O)(OC)OC=C(Cl)Cl` [Dichlorvos], the CC50 at 24 h is reported as > 90 µM.

Same assay, conditions: rat, gh3-tre-luc cells, AC50 (uM) modified / 1000, Tox21_110001=Tox21_201650; viability, 1 nM T3 present, 24 h

For `Nc1cccnc1` [3-Pyridinamine], the CC50 at 24 h was > 90 µM.

Same assay, conditions: rat, gh3-tre-luc cells, AC50 (uM) modified / 1000, Tox21_110001=Tox21_301761; viability, 1 nM T3 present, 24 h

With `CC(C)CP(=S)(S)CC(C)C` [Sodium bis(2-methylpropyl)phosphinodithioate] the CC50 at 24 h was > 90 µM.

Same assay, conditions: rat, gh3-tre-luc cells, AC50 (uM) modified / 1000, Tox21_110001=Tox21_301854; viability, 1 nM T3 present, 24 h

For `CCOC(=O)Nc1cccc(OC(=O)Nc2ccccc2)c1` [Desmedipham], the CC50 at 24 h was > 90 µM.
